{"source": "ChEMBL document CHEMBL5291721", "about": "“A preclinical secondary pharmacology resource illuminates target-adverse drug reaction associations of marketed drugs” (Nat Commun, 2023); further: assay procedure not described here", "key": {"[1]": {"target": "Mu-type opioid receptor (Homo sapiens, UniProt P35372)", "sequence (P35372 whole entry)": "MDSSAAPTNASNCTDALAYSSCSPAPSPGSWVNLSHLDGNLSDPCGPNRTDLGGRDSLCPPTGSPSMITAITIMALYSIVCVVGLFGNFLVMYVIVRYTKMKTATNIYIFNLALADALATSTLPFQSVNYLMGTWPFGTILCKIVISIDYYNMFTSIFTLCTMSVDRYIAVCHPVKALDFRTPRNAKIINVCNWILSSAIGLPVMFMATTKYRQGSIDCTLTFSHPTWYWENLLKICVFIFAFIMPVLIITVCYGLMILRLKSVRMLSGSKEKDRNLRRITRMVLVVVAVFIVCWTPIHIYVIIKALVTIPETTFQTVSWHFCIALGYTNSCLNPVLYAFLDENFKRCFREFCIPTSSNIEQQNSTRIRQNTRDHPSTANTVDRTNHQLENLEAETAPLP"}, "[2]": {"target": "Neuronal acetylcholine receptor subunit alpha-4 (Homo sapiens, UniProt P43681)", "sequence (P43681 whole entry)": "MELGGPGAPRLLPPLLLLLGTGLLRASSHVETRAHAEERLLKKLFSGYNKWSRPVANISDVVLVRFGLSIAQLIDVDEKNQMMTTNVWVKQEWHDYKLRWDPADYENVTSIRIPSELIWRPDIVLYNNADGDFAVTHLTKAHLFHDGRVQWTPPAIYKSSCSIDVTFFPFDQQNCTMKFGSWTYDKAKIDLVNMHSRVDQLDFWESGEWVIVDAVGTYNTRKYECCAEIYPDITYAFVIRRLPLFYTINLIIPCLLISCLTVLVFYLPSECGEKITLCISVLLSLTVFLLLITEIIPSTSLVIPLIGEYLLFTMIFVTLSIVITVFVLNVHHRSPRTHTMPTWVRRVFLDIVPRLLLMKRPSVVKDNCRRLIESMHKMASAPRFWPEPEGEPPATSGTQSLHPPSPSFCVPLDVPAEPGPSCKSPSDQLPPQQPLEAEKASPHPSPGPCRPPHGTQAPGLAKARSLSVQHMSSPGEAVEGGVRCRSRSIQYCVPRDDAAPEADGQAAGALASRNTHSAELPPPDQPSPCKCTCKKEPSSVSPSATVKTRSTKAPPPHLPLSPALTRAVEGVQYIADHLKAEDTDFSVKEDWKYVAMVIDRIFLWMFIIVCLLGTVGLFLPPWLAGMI"}, "[3]": {"target": "T1, Cholecystokinin receptor type A (Homo sapiens, UniProt P32238)", "T1 sequence (P32238 whole entry)": "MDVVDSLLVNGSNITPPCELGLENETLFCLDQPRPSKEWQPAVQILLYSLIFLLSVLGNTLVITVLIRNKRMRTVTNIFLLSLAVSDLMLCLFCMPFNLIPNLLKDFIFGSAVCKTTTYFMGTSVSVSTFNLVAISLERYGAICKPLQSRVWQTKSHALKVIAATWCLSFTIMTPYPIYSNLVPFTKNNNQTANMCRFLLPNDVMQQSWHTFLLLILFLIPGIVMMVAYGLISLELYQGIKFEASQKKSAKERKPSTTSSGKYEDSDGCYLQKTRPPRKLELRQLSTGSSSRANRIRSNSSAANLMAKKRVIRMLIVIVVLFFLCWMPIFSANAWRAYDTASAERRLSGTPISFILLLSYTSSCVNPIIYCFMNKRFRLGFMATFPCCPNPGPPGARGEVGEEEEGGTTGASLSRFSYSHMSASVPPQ"}, "[4]": {"target": "Histamine H2 receptor (Homo sapiens, UniProt P25021)", "sequence (P25021 whole entry)": "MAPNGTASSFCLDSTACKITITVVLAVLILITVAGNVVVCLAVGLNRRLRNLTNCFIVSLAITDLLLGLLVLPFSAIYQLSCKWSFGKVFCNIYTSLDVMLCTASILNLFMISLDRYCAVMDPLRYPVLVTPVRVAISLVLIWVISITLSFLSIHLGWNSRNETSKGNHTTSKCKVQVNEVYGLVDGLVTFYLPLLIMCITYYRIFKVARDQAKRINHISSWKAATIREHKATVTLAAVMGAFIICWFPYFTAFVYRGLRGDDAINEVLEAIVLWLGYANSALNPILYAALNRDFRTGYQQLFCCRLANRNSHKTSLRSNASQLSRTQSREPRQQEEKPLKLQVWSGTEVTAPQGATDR", "format": "functional, cell-based"}, "[5]": {"target": "Vasopressin V2 receptor (Homo sapiens, UniProt P30518)", "sequence (P30518 whole entry)": "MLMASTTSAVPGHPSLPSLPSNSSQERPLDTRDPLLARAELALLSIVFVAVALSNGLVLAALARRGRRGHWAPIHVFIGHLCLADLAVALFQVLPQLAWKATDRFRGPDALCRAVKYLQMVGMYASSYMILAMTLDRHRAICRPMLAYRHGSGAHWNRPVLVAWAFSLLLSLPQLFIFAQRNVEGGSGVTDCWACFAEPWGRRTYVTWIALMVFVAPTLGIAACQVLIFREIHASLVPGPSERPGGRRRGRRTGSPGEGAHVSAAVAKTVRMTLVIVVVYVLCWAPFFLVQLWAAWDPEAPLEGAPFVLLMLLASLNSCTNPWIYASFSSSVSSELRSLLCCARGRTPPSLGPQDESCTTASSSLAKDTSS"}, "[6]": {"target": "cGMP-inhibited 3',5'-cyclic phosphodiesterase 3A (Homo sapiens, UniProt Q14432)", "sequence (Q14432 whole entry)": "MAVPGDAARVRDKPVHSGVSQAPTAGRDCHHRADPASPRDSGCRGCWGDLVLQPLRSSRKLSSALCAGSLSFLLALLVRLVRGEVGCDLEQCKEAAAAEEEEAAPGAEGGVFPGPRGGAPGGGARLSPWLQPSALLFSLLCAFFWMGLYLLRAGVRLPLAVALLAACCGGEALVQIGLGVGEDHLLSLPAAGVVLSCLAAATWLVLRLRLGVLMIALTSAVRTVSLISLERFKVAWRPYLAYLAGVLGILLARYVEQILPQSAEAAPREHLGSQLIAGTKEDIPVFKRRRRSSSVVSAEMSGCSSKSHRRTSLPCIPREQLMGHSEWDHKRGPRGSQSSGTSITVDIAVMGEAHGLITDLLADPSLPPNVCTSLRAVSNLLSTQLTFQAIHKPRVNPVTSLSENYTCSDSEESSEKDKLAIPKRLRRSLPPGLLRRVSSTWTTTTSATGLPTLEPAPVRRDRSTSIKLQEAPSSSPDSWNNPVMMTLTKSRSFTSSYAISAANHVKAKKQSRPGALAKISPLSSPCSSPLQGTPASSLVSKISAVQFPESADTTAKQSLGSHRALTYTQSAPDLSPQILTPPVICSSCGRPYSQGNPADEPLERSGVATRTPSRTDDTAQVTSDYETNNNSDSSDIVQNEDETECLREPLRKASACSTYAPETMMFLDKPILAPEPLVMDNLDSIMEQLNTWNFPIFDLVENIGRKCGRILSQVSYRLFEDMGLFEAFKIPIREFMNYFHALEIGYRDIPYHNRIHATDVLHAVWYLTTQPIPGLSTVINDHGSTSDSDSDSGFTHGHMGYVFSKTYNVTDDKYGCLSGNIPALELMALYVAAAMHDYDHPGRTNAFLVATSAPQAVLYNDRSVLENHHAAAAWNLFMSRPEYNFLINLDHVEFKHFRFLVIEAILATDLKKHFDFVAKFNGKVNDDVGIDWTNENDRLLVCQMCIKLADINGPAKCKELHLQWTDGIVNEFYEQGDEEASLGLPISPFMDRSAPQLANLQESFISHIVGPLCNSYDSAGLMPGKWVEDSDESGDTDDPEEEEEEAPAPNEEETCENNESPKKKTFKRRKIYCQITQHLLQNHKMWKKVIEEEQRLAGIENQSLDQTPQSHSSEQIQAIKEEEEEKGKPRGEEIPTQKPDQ", "format": "functional"}, "[7]": {"target": "T2, Adenosine receptor A1 (Homo sapiens, UniProt P30542)", "T2 sequence (P30542 whole entry)": "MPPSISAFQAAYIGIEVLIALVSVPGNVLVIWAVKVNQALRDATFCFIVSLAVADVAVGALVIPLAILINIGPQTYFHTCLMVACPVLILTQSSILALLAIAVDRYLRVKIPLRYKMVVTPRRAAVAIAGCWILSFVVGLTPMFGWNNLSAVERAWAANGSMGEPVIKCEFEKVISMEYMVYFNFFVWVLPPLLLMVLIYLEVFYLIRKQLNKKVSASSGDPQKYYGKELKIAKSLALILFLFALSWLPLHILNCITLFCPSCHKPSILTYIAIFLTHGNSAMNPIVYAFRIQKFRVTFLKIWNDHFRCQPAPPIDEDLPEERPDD"}, "[8]": {"target": "T3, 5-hydroxytryptamine receptor 1A (Homo sapiens, UniProt P08908)", "T3 sequence (P08908 whole entry)": "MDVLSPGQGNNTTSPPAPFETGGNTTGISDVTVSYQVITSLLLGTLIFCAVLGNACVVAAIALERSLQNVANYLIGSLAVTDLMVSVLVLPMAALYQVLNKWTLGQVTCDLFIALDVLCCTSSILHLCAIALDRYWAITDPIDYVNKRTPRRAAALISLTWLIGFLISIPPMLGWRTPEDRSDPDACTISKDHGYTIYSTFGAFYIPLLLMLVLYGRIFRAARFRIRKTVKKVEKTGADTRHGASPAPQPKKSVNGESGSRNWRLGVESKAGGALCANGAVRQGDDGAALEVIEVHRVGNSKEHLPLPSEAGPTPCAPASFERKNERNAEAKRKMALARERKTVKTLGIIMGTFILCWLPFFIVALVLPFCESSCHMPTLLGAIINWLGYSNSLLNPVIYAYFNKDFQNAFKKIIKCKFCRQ", "format": "functional, cell-based"}, "[9]": {"target": "3',5'-cyclic-AMP phosphodiesterase 4D (Homo sapiens, UniProt Q08499)", "sequence (Q08499 whole entry)": "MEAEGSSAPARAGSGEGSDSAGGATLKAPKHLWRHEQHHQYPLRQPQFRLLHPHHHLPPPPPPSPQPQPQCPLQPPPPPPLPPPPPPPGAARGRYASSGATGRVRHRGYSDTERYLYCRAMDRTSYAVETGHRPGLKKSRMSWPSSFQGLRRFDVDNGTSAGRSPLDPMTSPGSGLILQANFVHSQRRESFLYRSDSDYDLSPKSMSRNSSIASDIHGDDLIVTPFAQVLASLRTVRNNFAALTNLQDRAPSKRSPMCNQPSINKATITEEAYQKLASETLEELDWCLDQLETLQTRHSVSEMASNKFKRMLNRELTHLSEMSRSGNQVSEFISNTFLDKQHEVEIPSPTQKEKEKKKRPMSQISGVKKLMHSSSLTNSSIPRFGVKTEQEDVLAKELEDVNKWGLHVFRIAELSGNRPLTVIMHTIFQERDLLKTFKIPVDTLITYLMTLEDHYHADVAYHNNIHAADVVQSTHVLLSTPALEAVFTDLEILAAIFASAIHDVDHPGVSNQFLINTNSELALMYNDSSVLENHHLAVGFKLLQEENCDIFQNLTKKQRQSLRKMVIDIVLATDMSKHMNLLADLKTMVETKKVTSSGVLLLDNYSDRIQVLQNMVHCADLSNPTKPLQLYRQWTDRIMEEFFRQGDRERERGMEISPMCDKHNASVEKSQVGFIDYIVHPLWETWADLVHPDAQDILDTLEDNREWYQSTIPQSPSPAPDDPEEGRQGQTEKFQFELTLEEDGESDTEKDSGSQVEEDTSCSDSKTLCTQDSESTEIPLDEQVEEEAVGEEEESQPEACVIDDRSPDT", "format": "functional"}, "[10]": {"target": "T4, Alpha-2C adrenergic receptor (Homo sapiens, UniProt P18825)", "T4 sequence (P18825 whole entry)": "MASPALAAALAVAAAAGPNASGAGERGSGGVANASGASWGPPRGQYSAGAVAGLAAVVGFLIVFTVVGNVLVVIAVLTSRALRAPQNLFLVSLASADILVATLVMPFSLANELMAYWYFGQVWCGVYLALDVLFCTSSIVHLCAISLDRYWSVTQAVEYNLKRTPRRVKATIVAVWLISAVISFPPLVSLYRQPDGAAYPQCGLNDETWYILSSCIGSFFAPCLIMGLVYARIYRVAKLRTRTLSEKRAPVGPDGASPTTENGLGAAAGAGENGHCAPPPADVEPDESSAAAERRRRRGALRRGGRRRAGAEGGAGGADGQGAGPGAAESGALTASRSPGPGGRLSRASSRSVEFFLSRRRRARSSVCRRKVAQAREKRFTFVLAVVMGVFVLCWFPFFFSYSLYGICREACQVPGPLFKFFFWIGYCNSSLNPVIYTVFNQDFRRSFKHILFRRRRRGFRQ", "format": "functional"}}}
{"smiles": "COC(=O)C[C@](O)(CCCC(C)(C)O)C(=O)O[C@@H]1C(OC)=C[C@]23CCCN2CCc2cc4c(cc2[C@H]13)OCO4", "note": "[OMACETAXINE MEPESUCCINATE]", "values": [{"measurement": "AC50", "setting": "[1]", "result": "> 30", "unit": "µM"}]}
{"smiles": "COc1cccc(C(=O)CCN[C@@H](C)[C@H](O)c2ccccc2)c1", "note": "[OXYFEDRINE]", "values": [{"measurement": "AC50", "setting": "[1]", "result": 2.7, "unit": "µM"}]}
{"smiles": "CC[N+](C)(CC)CCOC(=O)C(O)(c1ccccc1)C1CCCCC1", "note": "(configuration not stated) [OXYPHENONIUM]", "values": [{"measurement": "AC50", "setting": "[1]", "result": "> 30", "unit": "µM"}]}
{"smiles": "C[C@@H]1C[C@H]2[C@@H]3C[C@H](F)C4=CC(=O)C=C[C@]4(C)[C@H]3[C@@H](O)C[C@]2(C)[C@@]1(O)C(=O)CO", "note": "[PARAMETHASONE]", "values": [{"measurement": "AC50", "setting": "[1]", "result": "> 30", "unit": "µM"}]}
{"smiles": "CCC[C@H](N[C@@H](C)C(=O)N1[C@H](C(=O)O)C[C@@H]2CCCC[C@@H]21)C(=O)OCC", "note": "[PERINDOPRIL]", "values": [{"measurement": "AC50", "setting": "[1]", "result": "> 30", "unit": "µM"}]}
{"smiles": "NNCCc1ccccc1", "note": "[PHENELZINE]", "values": [{"measurement": "AC50", "setting": "[1]", "result": "> 30", "unit": "µM"}]}
{"smiles": "N[C@@H](Cc1ccccc1)C(=O)O", "note": "[PHENYLALANINE]", "values": [{"measurement": "AC50", "setting": "[1]", "result": "> 30", "unit": "µM"}]}
{"smiles": "CCCn1cnc2c1c(=O)n(CCCCC(C)=O)c(=O)n2C", "note": "[PROPENTOFYLLINE]", "values": [{"measurement": "AC50", "setting": "[1]", "result": "> 30", "unit": "µM"}]}
{"smiles": "COC(=O)[C@H]1[C@H]2C[C@@H]3c4[nH]c5cc(OC)ccc5c4CCN3C[C@H]2C[C@@H](OC(=O)c2cc(OC)c(OC)c(OC)c2)[C@@H]1OC", "note": "[RESERPINE]", "values": [{"measurement": "AC50", "setting": "[2]", "result": "> 10", "unit": "µM"}, {"measurement": "AC50", "setting": "[3]", "result": "> 10", "unit": "µM"}, {"measurement": "AC50", "setting": "[4]", "result": "> 30", "unit": "µM"}, {"measurement": "AC50", "setting": "[1]", "result": 3.77, "unit": "µM"}, {"measurement": "AC50", "setting": "[5]", "result": "> 10", "unit": "µM"}, {"measurement": "AC50", "setting": "[6]", "result": "> 30", "unit": "µM"}, {"measurement": "AC50", "setting": "[7]", "result": "> 30", "unit": "µM"}, {"measurement": "AC50", "setting": "[8]", "result": "> 10", "unit": "µM"}, {"measurement": "AC50", "setting": "[9]", "result": "> 30", "unit": "µM"}, {"measurement": "AC50", "setting": "[10]", "result": "> 30", "unit": "µM"}]}
{"smiles": "Clc1ccc(C(Cn2ccnc2)OCc2csc3c(Cl)cccc23)c(Cl)c1", "note": "(configuration not stated) [SERTACONAZOLE]", "values": [{"measurement": "AC50", "setting": "[1]", "result": 3.59, "unit": "µM"}]}
{"smiles": "CC(OCCN1CCCCCC1)(c1ccccc1)c1ccc(Cl)cc1", "note": "(configuration not stated) [SETASTINE]", "values": [{"measurement": "AC50", "setting": "[1]", "result": 3.66, "unit": "µM"}]}
{"smiles": "COc1cc(C)c2c(Oc3cccc(C(F)(F)F)c3)c(OC)cc(NC(C)CCCN)c2n1", "note": "(configuration not stated) [TAFENOQUINE]", "values": [{"measurement": "AC50", "setting": "[1]", "result": 20.6, "unit": "µM"}]}
{"smiles": "O=S1(=O)CCN(CN2CCS(=O)(=O)NC2)CN1", "note": "[TAUROLIDINE]", "values": [{"measurement": "AC50", "setting": "[2]", "result": "> 30", "unit": "µM"}, {"measurement": "AC50", "setting": "[4]", "result": "> 30", "unit": "µM"}, {"measurement": "AC50", "setting": "[1]", "result": "> 30", "unit": "µM"}, {"measurement": "AC50", "setting": "[6]", "result": "> 30", "unit": "µM"}, {"measurement": "AC50", "setting": "[8]", "result": "> 30", "unit": "µM"}, {"measurement": "AC50", "setting": "[9]", "result": "> 30", "unit": "µM"}, {"measurement": "AC50", "setting": "[10]", "result": "> 30", "unit": "µM"}]}
{"smiles": "CCCSc1nc(N[C@@H]2C[C@H]2c2ccc(F)c(F)c2)c2nnn([C@@H]3C[C@H](OCCO)[C@@H](O)[C@H]3O)c2n1", "note": "[TICAGRELOR]", "values": [{"measurement": "AC50", "setting": "[1]", "result": "> 30", "unit": "µM"}]}
{"smiles": "c1ccc2c(SC3=NCCN3)c[nH]c2c1", "note": "[TINAZOLINE]", "values": [{"measurement": "AC50", "setting": "[1]", "result": "> 30", "unit": "µM"}]}
{"smiles": "Cc1ccc(C(=O)C(C)CN2CCCCC2)cc1", "note": "(configuration not stated) [TOLPERISONE]", "values": [{"measurement": "AC50", "setting": "[1]", "result": "> 30", "unit": "µM"}]}
{"smiles": "COc1ccc2c(C(=S)N(C)CC(=O)O)cccc2c1C(F)(F)F", "note": "[TOLRESTAT]", "values": [{"measurement": "AC50", "setting": "[1]", "result": "> 30", "unit": "µM"}]}
